Measured values published in publication PMC7497403, “Development of Potent PfCLK3 Inhibitors Based on TCMDC-135051 as a New Class of Antimalarials” (Journal of Medicinal Chemistry, 2020).

What was measured:
P. falciparum 3D7 = test: Parasite growth inhibition (Sybr Green I) in 3D7 parasites; format: cell-based; conditions: for fold decrease in parasite growth inhibition: 3D7 parasites, relative to TCMDC-135051 (1); for EC50: Plasmodium falciparum, asexual 3D7 (chloroquine-sensitive) P. falciparum, ± SEM, n = 3, read-out: 3D7 pEC50 (converted); for 3D7 ED50: Table 2, asexual 3D7 P. falciparum
[1] = molecular target: T1, full-length PfCLK3 recombinant protein (Plasmodium falciparum, UniProt Q8IIL5); test: TR-FRET PfCLK3 in vitro kinase assay; format: biochemical, P. falciparum; conditions: for IC50: TR-FRET, full-length recombinant PfCLK3, ± SEM, n = 3, read-out: PfCLK3 pIC50 (converted)
T1 sequence (Q8IIL5 1-699): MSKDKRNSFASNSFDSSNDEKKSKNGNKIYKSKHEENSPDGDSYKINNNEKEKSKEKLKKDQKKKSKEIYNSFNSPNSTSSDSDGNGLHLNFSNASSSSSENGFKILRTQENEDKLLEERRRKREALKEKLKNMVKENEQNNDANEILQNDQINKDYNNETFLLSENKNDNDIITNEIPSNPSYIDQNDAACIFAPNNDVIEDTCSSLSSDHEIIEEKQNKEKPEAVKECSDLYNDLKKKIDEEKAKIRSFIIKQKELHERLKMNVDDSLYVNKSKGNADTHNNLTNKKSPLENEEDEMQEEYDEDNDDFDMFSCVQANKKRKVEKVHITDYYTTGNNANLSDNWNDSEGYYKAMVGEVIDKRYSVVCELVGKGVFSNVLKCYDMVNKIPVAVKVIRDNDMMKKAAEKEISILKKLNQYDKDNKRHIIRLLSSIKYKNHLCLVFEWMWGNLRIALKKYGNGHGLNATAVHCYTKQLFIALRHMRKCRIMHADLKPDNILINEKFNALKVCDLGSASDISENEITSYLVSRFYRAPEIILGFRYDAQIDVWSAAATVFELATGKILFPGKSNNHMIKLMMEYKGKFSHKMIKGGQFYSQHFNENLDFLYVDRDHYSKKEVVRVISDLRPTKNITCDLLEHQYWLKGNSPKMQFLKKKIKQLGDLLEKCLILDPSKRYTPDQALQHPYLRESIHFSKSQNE
Protocol: First, in a 10 μL reaction volume, 5 μL of twice the required enzyme concentration (50 nM) and 2.5 μL of four times the required substrate concentration mix containing cold ATP, and the serially diluted drugs were mixed in a black 384-plate well plate and incubated at 37 °C for 1 h. The reaction was stopped after incubation by adding the stopping/detection solution (containing 30 mM EDTA in 1× Lance detection buffer and 3 nM Europium-labeled antiphospho-specific antibody) and incubated for another hour at RT before phosphorylation signals were measured using the ClarioStar.
For each test compound, percent inhibition (response) which was calculated using the formula: [drawing 3] was plotted against the log molar concentration of compound to calculate the IC50 (potency) of each inhibitor molecule and plotted using GraphPad prism software. All experiments were carried out in triplicates, and the data presented were the standard error of the mean (SEM) of three independent experiments run in triplicates.
PfCLK3 phosphorylation of substrate results in the Europium-labeled antiphospho-specific antibody recognizing the phosphorylated site on the substrate. The Europium donor fluorophore is excited at 320 or 340 nm, and energy is transferred to the ULight acceptor dye on the substrate, which finally results in the emission of light at 665 nm. The level of ULight peptide phosphorylation correlates with the intensity of the emission. For normalization, a no kinase and a no inhibitor reaction wells were included, and all experiments were conducted in triplicates. Drug dilutions, protein concentrations, and incubation times were the same for easy comparison of results.

Microsomal stability = format: in vitro ADME; conditions: mouse liver microsomes; 1 μM compound
Protocol: Compounds were incubated at 37 °C at a concentration of 1 μM with CD1 mouse liver microsomes (GIBCO, Thermo Fisher Scientific) in a suspension of 50 mM potassium phosphate buffer (pH 7.4) with a final protein concentration of 0.5 mg/mL. The reaction was started by the addition of excess NADPH and then quenched at several time points starting from time 0, then at 3, 6, 9, 15, and 30 min addition of acetonitrile to an aliquot of the sample. An internal standard was added to each sample before centrifugation to remove any precipitates before monitoring loss of parent compound by HPLC analysis using Shimadzu LC-20A (Shimadzu, UK). Prism (Graphpad, USA) was used to fit an exponential decay for substrate depletion and subsequently rate constant (k) from the peak area of the parent compound to the internal standard at each time point.

[2] = test system: P. falciparum clinical field isolates from The Gambia; test: Parasite reduction rate (PRR) assay with clinical isolates; format: cell-based; conditions: all isolates except GB0020, GB002 and GB0026; at EC50 concentration (18 nM)

Row | SMILES | fold decrease in parasite growth inhibition (P. falciparum 3D7) [fold] | IC50 [1] [nM] | clint (in vitro intrinsic clearance) (Microsomal stability) [mL/min/g liver] | other results
1 | COc1ccc(CN(C)C)cc1-c1cc2c(-c3ccc(C(=O)O)c(C(C)C)c3)ccnc2[nH]1 [analogue 8a, 4-(2-{5-[(Dimethylamino)methyl]-2-methoxyphenyl}-1H-pyrrolo[2,3-b]pyridin-4-yl)-2-(propan-2-yl)benzoic Acid] | 2 | 31.6 | 2.53 | EC50 (P. falciparum 3D7): 501 nM
2 | COc1ccc(CN2CCCC2)cc1-c1cc2c(-c3ccc(C(=O)O)c(C(C)C)c3)ccnc2[nH]1 [analogue 8b, 4-(2-{2-Methoxy-5-[(pyrrolidin-1-yl)methyl]phenyl}-1H-pyrrolo[2,3-b]pyridin-4-yl)-2-(propan-2-yl)benzoic Acid] | 2 |  | 1.94 | 
3 | COc1ccc(CN2CCOCC2)cc1-c1cc2c(-c3ccc(C(=O)O)c(C(C)C)c3)ccnc2[nH]1 [analogue 8c, 4-(2-{2-Methoxy-5-[(morpholin-4-yl)methyl]phenyl}-1H-pyrrolo[2,3-b]pyridin-4-yl)-2-(propan-2-yl)benzoic Acid] |  | 10 | 1.60 | 
4 | CCOC(=O)c1ccc(-c2ccnc3[nH]c(-c4cc(CN(CC)CC)ccc4OC)cc23)cc1C(C)C [analogue 9, Ethyl 4-(2-(5-((Diethylamino)methyl)-2-methoxyphenyl)-1H-pyrrolo[2,3-b]pyridin-4-yl)-2-isopropylbenzoate] |  |  | 16.06 | 
5 | COc1ccc(CN)cc1-c1cc2c(-c3ccc(C(=O)O)c(C(C)C)c3)ccnc2[nH]1 [analogue 12, 4-{2-[5-(Aminomethyl)-2-methoxyphenyl]-1H-pyrrolo[2,3-b]pyridin-4-yl}-2-(propan-2-yl)benzoic Acid] |  |  | 2.92 | fold less potent in vitro (PfCLK3) ([1]; relative to TCMDC-135051 (1)): 2 fold
6 | COc1ccccc1-c1cc2c(-c3ccc(C(=O)O)c(C(C)C)c3)ccnc2[nH]1 [analogue 15, 4-[2-(2-Methoxyphenyl)-1H-pyrrolo[2,3-b]pyridin-4-yl]-2-(propan-2-yl)benzoic Acid] | 7 |  | 2.54 | 
7 | CCN(CC)Cc1ccc(O)c(-c2cc3c(-c4ccc(C(=O)O)c(C(C)C)c4)ccnc3[nH]2)c1 [analogue 19, 4-(2-(5-((Diethylamino)methyl)-2-hydroxyphenyl)-1H-pyrrolo[2,3-b]pyridin-4-yl)-2-isopropylbenzoic Acid] |  | 20 | 1.94 | EC50 (P. falciparum 3D7): 3160 nM
8 | CCN(CC)Cc1cccc(-c2cc3c(-c4ccc(C(=O)O)c(C(C)C)c4)ccnc3[nH]2)c1 [analogue 23, 4-(2-{3-[(Diethylamino)methyl]phenyl}-1H-pyrrolo[2,3-b]pyridin-4-yl)-2-(propan-2-yl)benzoic Acid] | 1.5 |  | 0.85 | 
9 | CCN(CC)Cc1cccc(-c2cc3c(-c4ccc(C(=O)O)c(C(C)C)c4)ccnc3[nH]2)c1OC [analogue 27, 4-(2-(3-((Diethylamino)methyl)-2-methoxyphenyl)-1H-pyrrolo[2,3-b]pyridin-4-yl)-2-isopropylbenzoic Acid] | 15 | 20 | 1.65 | fold increase in in vitro kinase activity (PfCLK3) ([1]; relative to TCMDC-135051 (1)): 2 fold
10 | CCN(CC)Cc1ccc(OC)c(-c2cc3c(-c4ccc(C(=O)O)c(C)c4)ccnc3[nH]2)c1 [analogue 28, 4-(2-(5-((Diethylamino)methyl)-2-methoxyphenyl)-1H-pyrrolo[2,3-b]pyridin-4-yl)-2-methylbenzoic Acid] | 6 |  | 1.33 | 3D7 ED50 (P. falciparum 3D7): 1185 nM
11 | CCN(CC)Cc1ccc(OC)c(-c2cc3c(-c4ccc(C(=O)O)cc4)ccnc3[nH]2)c1 [analogue 29, 4-(2-(5-((Diethylamino)methyl)-2-methoxyphenyl)-1H-pyrrolo[2,3-b]pyridin-4-yl)benzoic Acid] | 16 | 31.6 | 11.01 | 3D7 ED50 (P. falciparum 3D7): 3272 nM
12 | CCN(CC)Cc1ccc(OC)c(-c2cc3c(-c4ccc(-c5nnn[nH]5)c(C(C)C)c4)ccnc3[nH]2)c1 [analogue 30, N-Ethyl-N-(3-(4-(3-isopropyl-4-(1H-tetrazol-5-yl)phenyl)-1H-pyrrolo[2,3-b]pyridin-2-yl)-4-methoxybenzyl)ethanamine] |  |  | 2.32 | 
13 | CCN(CC)Cc1ccc(OC)c(-c2cc3c(-c4cccc(C(C)C)c4)ccnc3[nH]2)c1 [analogue 31, N-Ethyl-N-(3-(4-(3-isopropylphenyl)-1H-pyrrolo[2,3-b]pyridin-2-yl)-4-methoxybenzyl)ethanamine] |  | 1000 | 9.54 | 
14 | CCc1nc(N)nc(N)c1-c1ccc(Cl)cc1 [pyrimethamine, reference compound] |  |  |  | reduction in parasitemia (PRR) [2]: at least 70%
